Source: patent US20150218212A1, “FLUORINATED EPOXYKETONE-BASED TETRAPEPTIDE COMPOUNDS AND USES THEREOF AS PROTEASOME INHIBITORS” (FLUORINOV PHARMA INC., priority 2012, published 2015)
Read-outs that look alike come from different tables or passages of the source.

Key:
Type in all cases: in vivo, NOD/SCID mice
[1] = biological target: T1, proteasome Chymotrypsin-like (CT-L) activity (Mus musculus, UniProt O09061+O55234); experiment: Pharmacodynamic proteasome activity in murine red blood cells, CT-L; conditions: iv, mice, 2 mg/kg i.v.
T1 construct: RBCs were lysed with assay lysis buffer and incubated on ice for 30 minutes; from tissue; host or cells: red blood cells of NOD/SCID mice
Experimental: (§1) Cells were harvested by centrifugation at 1,200 rpm at room temperature. Cell pellets were washed with PBS (phosphate buffered saline) and lysed with assay lysis buffer (50 mM HEPES (N-2-hydroxyethylpiperazine-N′-2-ethanesulfonic acid), pH 7.5; 150 mM NaCl; 1% Triton X-100; 2 mM ATP). Cell lysates were incubated on ice for 30 minutes, mixed by vortex every 5 minutes, and then centrifuged at 12,000 g for 10 minutes. The supernatant was transferred to a 96-well plate. For each assay, 10 μg of total protein were incubated for 1 hour at 37° C. with increasing concentrations (1 nM to 10 μM) of test compound diluted in assay buffer (50 mM tris-HCl (tris(hydroxymethyl)aminomethane-HCl), pH 7.5; 150 mM NaCl). DMSO alone was used as a control in every assay plate. After incubation, a specific fluorogenic proteasome substrate was added to each assay reaction at a final concentration of 40 μM in a total volume of 100 μL. N-Succinyl-Leu-Leu-Val-Tyr-7-amino-4-methylcoumarin (Suc-Leu-Leu-Val-Tyr-AMC) was used for measuring chymotrypsin-like (CT-L) activity, t-butoxycarbonyl-Leu-Arg-Arg-7-amino-4-methylcoumarin (Boc-Leu-Arg-Arg-AMC) for trypsin-like (T-L) activity, and benzyloxycarbonyl-L-leucyl-L-leucyl-L-glutamyl-7-amino-4-methylcoumarin (Z-Leu-Leu-Glu-AMC) for caspase-like (C-L) activity. The excitation wavelength was set at 360 nm and the fluorescence emission wavelength of AMC was detected at 460 nm. The fluorescence of free AMC released during the enzymatic reaction was measured with a SpectraMax M5 fluorescent spectrophotometric plate reader (Molecular Devices, Sunnyvale, Calif.). AMC release rate was measured at 37° C. in a kinetic mode, recording every 5 minutes for 30 minutes. Experiments were performed in triplicate and repeated at least twice.
(§2) All mouse experiments were performed in accordance with approval from the Ontario Cancer Institute institutional animal review board. Five- to six-week-old male non-obese diabetic/severe combined immunodeficient (NOD/SCID) mice were grouped randomly (n=3 mice per group). Mice were administered vehicle (5% DMSO, 20% Cremophor) or compounds of Formula I at different doses either intravenously or by oral gavage, and venous blood samples (20-50 μL) were collected from each mouse over 24 hours. Blood samples were mixed with heparin (APP Pharmaceuticals; Schaumburg, Ill.) in 0.5 mL tubes in accordance with the manufacturer's instructions. After centrifugal separation at 3,000 g for 10 minutes, red blood cells (RBCs) in the bottom layer were transferred into a new tube and stored at −70° C. until use. RBCs were lysed with assay lysis buffer and incubated on ice for 30 minutes, mixing by vortex every 5 minutes, and then centrifuged at 12,000 g for 10 minutes. The supernatant was transferred to a 96-well plate and proteasome activity was measured as described above for tumor cell lysates.
(§3) Proteasome subunit activity (Chymotrypsin-like, Trypsin-like, Caspase-like, CT-L, T-L, C-L, respectively) were monitored over the course of 24 hrs following […] administration of representative compounds of Formula I. NOD/SCID mice were treated with compounds of Formula I (2 mg/kg by iv administration) or vehicle control and carfilzomib for up to 24 hours, as described above. Table 9 summarizes the data on pharmacodynamic activity of representative compounds of Formula I following a dose of 2 mg/kg intravenous (i.v) administration to mice. Data are presented as mean residual activity (SEM) relative to vehicle treated controls.

[2] = biological target: T2, proteasome Trypsin-like (T-L) activity (Mus musculus, UniProt P70195+Q9R1P1); experiment: Pharmacodynamic proteasome activity in murine red blood cells, T-L; conditions: iv, mice, 2 mg/kg i.v., time 0, read-out: Trypsin-like (T-L) mean residual activity relative to vehicle treated controls
T2 construct: RBCs were lysed with assay lysis buffer and incubated on ice for 30 minutes; from tissue; host or cells: red blood cells of NOD/SCID mice
Experimental: as §1, §2, §3

[3] = biological target: T3, proteasome Caspase-like (C-L) activity (Mus musculus, UniProt P70195+Q60692); experiment: Pharmacodynamic proteasome activity in murine red blood cells, C-L; conditions: iv, mice, 2 mg/kg i.v., time 0, read-out: Caspase-like (C-L) mean residual activity relative to vehicle treated controls
T3 construct: RBCs were lysed with assay lysis buffer and incubated on ice for 30 minutes; from tissue; host or cells: red blood cells of NOD/SCID mice
Experimental: as §1, §2, §3

remaining activity at 2 mg/kg ([1]; 30 min, read-out: Chymotrypsin-like (CT-L) mean residual activity relative to vehicle treated controls): 48%
remaining activity at 2 mg/kg ([1]; 24 hrs, read-out: Chymotrypsin-like (CT-L) mean residual activity relative to vehicle treated controls): 46%
remaining activity at 2 mg/kg ([1]; time 0, read-out: Chymotrypsin-like (CT-L) mean residual activity relative to vehicle treated controls): 100%
remaining activity at 2 mg/kg [2]: 100%
remaining activity at 2 mg/kg [3]: 100%
Structure (SMILES): CC(C)C[C@H](NC(=O)[C@H](CCc1ccccc1)NC(=O)CN1CCOCC1)C(=O)N[C@@H](Cc1ccccc1)C(=O)N[C@@H](CC(C)C)C(=O)[C@@]1(C)CO1 [Carfilzomib, carfilzomib, reference compound]
